From PubChem BioAssay AID248 (DTP/NCI, 2004)
Several values for one entry are separate records, joined by “and”; a condition that tells them apart may be missing. Identical values can stand only once. Inconclusive results and toxic doses are left out. Cut-off read from the data, not from the text of the source: active = T/C of 150% or more; inactive = T/C below 125%.

Tested on: L1210 leukemia ip in BDF1 mice, survival T/C
Test: NCI In Vivo Anticancer Drug Screen. Data for tumor model L1210 Leukemia (intraperitoneal) in B6D2F1 (BDF1) mice
Conditions: endpoint: mean survival time, higher = longer survival
How it was run: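 Value reflects the ratio of survival in compound-treated mice to survival in vehicle-treated controls, with both groups carrying the same transplanted tumor.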

[1] = dose: 6.25 mg/kg/injection, schedule: Q01DX009 (ip), vehicle: saline with Tween-80
[2] = dose: 12.5 mg/kg/injection, schedule: Q01DX009 (ip), vehicle: saline with Tween-80
[3] = dose: 25.0 mg/kg/injection, schedule: Q01DX009 (ip), vehicle: saline with Tween-80
[4] = dose: 50.0 mg/kg/injection, schedule: Q04DX003 (ip), vehicle: saline
[5] = dose: 100.0 mg/kg/injection, schedule: Q01DX001 (ip), vehicle: saline
[6] = dose: 200.0 mg/kg/injection, schedule: Q01DX001 (ip), vehicle: saline
[7] = dose: 50.0 mg/kg/injection, schedule: Q01DX001 (ip), vehicle: saline
[8] = dose: 100.0 mg/kg/injection, schedule: Q01DX009 (ip), vehicle: saline with Tween-80
[9] = dose: 200.0 mg/kg/injection, schedule: Q01DX009 (ip), vehicle: saline with Tween-80
[10] = dose: 400.0 mg/kg/injection, schedule: Q01DX009 (ip), vehicle: saline with Tween-80
[11] = dose: 400.0 mg/kg/injection, schedule: Q01DX001 (ip), vehicle: saline

Measured: T/C

CS(=O)(=O)ON1C(=O)c2ccccc2C1=O
inactive: [1] 94 % of control | [2] 98 % of control | [3] 94 % of control | dose: 25.0 mg/kg/injection, schedule: Q04DX003 (ip), vehicle: saline 91 % of control | [4] 93 % of control

ClC1=C2C=CC=CC2C(Cl)(c2ccccc2)C2=C1C(Cl)=C1C=CC=CC1C2(Cl)c1ccccc1 (stereo not drawn)
inactive: dose: 100.0 mg/kg/injection, schedule: Q01DX001 (ip), vehicle: Klucel (hydroxypropylcellulose) (HPC) 106 % of control | dose: 200.0 mg/kg/injection, schedule: Q01DX001 (ip), vehicle: Klucel (hydroxypropylcellulose) (HPC) 101 % of control | dose: 400.0 mg/kg/injection, schedule: Q01DX001 (ip), vehicle: Klucel (hydroxypropylcellulose) (HPC) 101 % of control

CCOP(=O)(CC(=O)OC)OCC
inactive: [4] 102 % of control | dose: 100.0 mg/kg/injection, schedule: Q01DX009 (ip), vehicle: saline 103 % of control | dose: 100.0 mg/kg/injection, schedule: Q04DX003 (ip), vehicle: saline 100 % of control | dose: 200.0 mg/kg/injection, schedule: Q01DX009 (ip), vehicle: saline 101 % of control | dose: 200.0 mg/kg/injection, schedule: Q04DX003 (ip), vehicle: saline 102 % of control | dose: 400.0 mg/kg/injection, schedule: Q01DX009 (ip), vehicle: saline 88 % of control | dose: 400.0 mg/kg/injection, schedule: Q04DX003 (ip), vehicle: saline 102 % of control

Oc1ccc(/C=N/NC(=S)NN2CCOCC2)nc1
inactive: [1] 108 % of control | [2] 116 % of control | dose: 22.0 mg/kg/injection, schedule: Q04DX002 (ip), vehicle: saline with Tween-80 108 % of control | [3] 108 % of control and 119 % of control | dose: 33.0 mg/kg/injection, schedule: Q04DX002 (ip), vehicle: saline with Tween-80 101 % of control | dose: 50.0 mg/kg/injection, schedule: Q04DX002 (ip), vehicle: saline with Tween-80 111 % of control

C/C=C(/C)c1ccccc1
inactive: dose: 100.0 mg/kg/injection, schedule: Q01DX001 (ip), vehicle: carboxymethylcellulose (CMC) 95 % of control | dose: 200.0 mg/kg/injection, schedule: Q01DX001 (ip), vehicle: carboxymethylcellulose (CMC) 95 % of control | dose: 400.0 mg/kg/injection, schedule: Q01DX001 (ip), vehicle: carboxymethylcellulose (CMC) 95 % of control

CCCCC(=O)N1CCC(C)CC1
inactive: dose: 100.0 mg/kg/injection, schedule: Q04DX002 (ip), vehicle: saline 98 % of control | dose: 200.0 mg/kg/injection, schedule: Q04DX002 (ip), vehicle: saline 91 % of control

Cc1cc[n+](Cc2ccccc2Cl)c(C)c1
inactive: dose: 6.25 mg/kg/injection, schedule: Q01DX009 (ip), vehicle: saline 105 % of control | dose: 6.25 mg/kg/injection, schedule: Q04DX003 (ip), vehicle: saline 96 % of control | dose: 8.0 mg/kg/injection, schedule: Q01DX009 (ip), vehicle: saline 99 % of control | dose: 12.0 mg/kg/injection, schedule: Q01DX009 (ip), vehicle: saline 96 % of control | dose: 12.5 mg/kg/injection, schedule: Q04DX003 (ip), vehicle: saline 102 % of control | dose: 18.0 mg/kg/injection, schedule: Q01DX009 (ip), vehicle: saline 105 % of control | dose: 25.0 mg/kg/injection, schedule: Q01DX009 (ip), vehicle: saline 113 % of control

Cc1cc(C(=O)CC(C)C(=O)O)cc2c1sc1ccccc12 (stereo not drawn)
inactive: [5] 86 % of control | [6] 100 % of control

CCN(CC)CN1C(=O)C(=O)c2ccccc21
inactive: dose: 100.0 mg/kg/injection, schedule: Q01DX001 (ip), vehicle: steriod suspending solution 92 % of control | dose: 200.0 mg/kg/injection, schedule: Q01DX001 (ip), vehicle: steriod suspending solution 108 % of control | dose: 400.0 mg/kg/injection, schedule: Q01DX001 (ip), vehicle: steriod suspending solution 114 % of control

CC(=O)OC1=CC(=O)C(OC(C)=O)=C(c2c(C)cc(C)c(Br)c2C)C1=O
inactive: [7] 91 % of control | [5] 95 % of control | [6] 101 % of control

CC1(C)C(=O)C(=O)C2CCCCC21 (stereo not drawn)
inactive: [8] 97 % of control | [9] 110 % of control | [10] 92 % of control

NC(=S)NN=C1CCC1
inactive: [7] 98 % of control | [5] 93 % of control and 91 % of control

C=Cn1cc[n+](Cc2ccccc2)c1C
inactive: dose: 10.0 mg/kg/injection, schedule: Q01DX009 (ip), vehicle: saline 101 % of control and 104 % of control | dose: 10.0 mg/kg/injection, schedule: Q04DX002 (ip), vehicle: saline 108 % of control and 90 % of control | dose: 20.0 mg/kg/injection, schedule: Q01DX009 (ip), vehicle: saline 105 % of control | dose: 20.0 mg/kg/injection, schedule: Q04DX002 (ip), vehicle: saline 94 % of control and 97 % of control | dose: 40.0 mg/kg/injection, schedule: Q01DX009 (ip), vehicle: saline 100 % of control and 116 % of control | dose: 40.0 mg/kg/injection, schedule: Q04DX002 (ip), vehicle: saline 97 % of control and 102 % of control

Nc1nc(NCCCc2ccccc2)c2[nH]cnc2n1
inactive: dose: 12.5 mg/kg/injection, schedule: Q04DX002 (ip), vehicle: Klucel (hydroxypropylcellulose) (HPC) 98 % of control | dose: 25.0 mg/kg/injection, schedule: Q04DX002 (ip), vehicle: Klucel (hydroxypropylcellulose) (HPC) 95 % of control | dose: 50.0 mg/kg/injection, schedule: Q04DX002 (ip), vehicle: Klucel (hydroxypropylcellulose) (HPC) 102 % of control

O=C(CCc1ccccc1)Nc1ccccc1
inactive: [7] 96 % of control | [5] 106 % of control | dose: 100.0 mg/kg/injection, schedule: Q04DX003 (ip), vehicle: Klucel (hydroxypropylcellulose) (HPC) 97 % of control | [6] 101 % of control | dose: 200.0 mg/kg/injection, schedule: Q04DX003 (ip), vehicle: Klucel (hydroxypropylcellulose) (HPC) 102 % of control | [11] 102 % of control | dose: 400.0 mg/kg/injection, schedule: Q04DX003 (ip), vehicle: Klucel (hydroxypropylcellulose) (HPC) 89 % of control

COB1OB(OC)OB(OC)O1
inactive: dose: 500.0 mg/kg/injection, schedule: Q01DX Z (ip), vehicle: other 94 % of control | dose: 750.0 mg/kg/injection, schedule: Q01DX Z (ip), vehicle: other 104 % of control | dose: 1000.0 mg/kg/injection, schedule: Q01DX001 (ip), vehicle: carboxymethylcellulose (CMC) 109 % of control | dose: 1000.0 mg/kg/injection, schedule: Q01DX Z (ip), vehicle: other 107 % of control | dose: 1500.0 mg/kg/injection, schedule: Q01DX Z (ip), vehicle: other 118 % of control | dose: 2000.0 mg/kg/injection, schedule: Q01DX001 (ip), vehicle: carboxymethylcellulose (CMC) 113 % of control | dose: 3000.0 mg/kg/injection, schedule: Q01DX001 (ip), vehicle: carboxymethylcellulose (CMC) 113 % of control

C[As](C)Sc1ncccn1
inactive: dose: 6.25 mg/kg/injection, schedule: Q01DX009 (ip), vehicle: Klucel (hydroxypropylcellulose) (HPC) 100 % of control | dose: 12.5 mg/kg/injection, schedule: Q01DX009 (ip), vehicle: Klucel (hydroxypropylcellulose) (HPC) 103 % of control | dose: 12.5 mg/kg/injection, schedule: Q04DX003 (ip), vehicle: Klucel (hydroxypropylcellulose) (HPC) 98 % of control | dose: 25.0 mg/kg/injection, schedule: Q04DX003 (ip), vehicle: Klucel (hydroxypropylcellulose) (HPC) 95 % of control

c1ccc2c[n+](CCCCCCCCCC[n+]3ccc4ccccc4c3)ccc2c1
inactive: dose: 1.0 mg/kg/injection, schedule: Q01DX009 (ip), vehicle: saline 106 % of control | dose: 2.0 mg/kg/injection, schedule: Q01DX009 (ip), vehicle: saline 97 % of control | dose: 4.0 mg/kg/injection, schedule: Q01DX009 (ip), vehicle: saline 92 % of control | dose: 8.0 mg/kg/injection, schedule: Q04DX003 (ip), vehicle: saline 97 % of control | dose: 16.0 mg/kg/injection, schedule: Q04DX003 (ip), vehicle: saline 92 % of control | dose: 32.0 mg/kg/injection, schedule: Q04DX003 (ip), vehicle: saline 89 % of control

N=c1ccn(O)cc1[N+](=O)[O-]
inactive: [5] 108 % of control | [6] 120 % of control | [11] 114 % of control

O=[N+]([O-])c1ccc(SSc2ccc([N+](=O)[O-])cc2)cc1
inactive: [8] 95 % of control | dose: 100.0 mg/kg/injection, schedule: Q04DX002 (ip), vehicle: Klucel (hydroxypropylcellulose) (HPC) 115 % of control | [9] 87 % of control | dose: 200.0 mg/kg/injection, schedule: Q04DX002 (ip), vehicle: Klucel (hydroxypropylcellulose) (HPC) 100 % of control | [10] 94 % of control | dose: 400.0 mg/kg/injection, schedule: Q04DX002 (ip), vehicle: Klucel (hydroxypropylcellulose) (HPC) 86 % of control
